Assays:
Assay type in all cases: in vivo
Sclerotinia sclerotiorum = assay: Action against Sclerotinia sclerotiorum in soybean using pot trials (Use example FG-6); conditions: soy bean cv. Goriziana, pots, 14 days at 20° C; % of the untreated control (infection level 96%); pyraclostrobin 2.5 g ai/100 kg seeds as seed treatment, B. pumilus INR7 10 ml broth per seed as drench
Description: Pyraclostrobin was applied as commercial seed treatment formulation […], Ludwigshafen, Germany). The application of the pyraclostrobin was done as seed treatment and the seeds were treated in the BASF Seed Solutions Technology Center (SSTC) Limburgerhof using a batch lab treater. The respective amount of seeds was placed in the bowl of the treater and the slurry was dosed on the spinning disk. The B. pumilus INR7 were grown in shake flasks and used as fermentation broth with of at least 1×10^12 CFU per ml. This broth was added as a drench solution directly adjacent to the seeds with 10 ml for each seed kernel which makes 50 ml per pot. For the infection, rye kernels inoculated with Sclerotinia sclerotiorum were used. The trial was sown in 8 cm pots and as a substrate a mix of peat substrate and sand in the ratio 1:4 was used. The pots were filled with the substrate and the rye kernels inoculated with Sclerotinia sclerotiorum were placed directly adjacent to the seeds. In each pot 5 soy bean seeds (cv. Goriziana) were sown at a sowing depth of 2 cm, then covered with substrate. For each treatment 5 replications were made. […] For the assessment, the plants were evaluated according to a 2 class evaluation (healthy, diseased). Those figures were converted into efficacies in % of the untreated control and the efficacy (E) was calculated as follows using Abbot's formula.

Gaeumannomyces graminis = assay: Action against Gaeumannomyces graminis in wheat using pot trials (Use example FG-7); conditions: wheat cv. JB Asano, pots, 14 days at 20° C; % of the untreated control (infection 96%); pyraclostrobin 2.5 g ai/100 kg seeds as seed treatment, B. pumilus INR7 10 ml broth per seed as drench
Description: Pyraclostrobin was applied as commercial seed treatment formulation […], Ludwigshafen, Germany). The application of the pyraclostrobin was done as seed treatment and the seeds were treated in the BASF Seed Solutions Technology Center (SSTC) Limburgerhof using a batch lab treater. The respective amount of seeds was placed in the bowl of the treater and the slurry was dosed on the spinning disk. The B. pumilus INR7 were grown in shake flasks and used as fermentation broth with of at least 1×10^12 CFU per ml. This broth was added as a drench solution directly adjacent to the seeds with 10 ml for each seed kernel which makes 50 ml per pot. For the assessment, the plants were evaluated according to a 2 class evaluation (healthy, diseased). Those figures were converted into efficacies in % of the untreated control and the efficacy (E) was calculated as follows using Abbot's formula. Experimental setup was identical to Use example FG-6 unless described below. For the infection, rye kernels inoculated with Gaeumannomyces graminis were used. The trial was sown in 8 cm pots and a mix of peat substrate and sand (ratio 1:4) was used as a substrate. The pots were filled with the substrate and the rye kernels inoculated with Gaeumannomyces graminis were placed directly adjacent to the wheat seeds. […] JB Asano) were sown at a sowing depth of 1.5 cm and then covered with substrate. […]

wheat = assay: Improvement of plant height in wheat, pot trials (Use example H-2); conditions: wheat cv. JB Asano, pots, 14 days at 20° C; untreated control = 100% (13.9 cm); pyraclostrobin 5 g ai/100 kg seeds as seed treatment, B. pumilus INR7 10 ml broth per seed as drench
Description: Pyraclostrobin was applied as commercial seed treatment formulation STAMINA (200 g/L a.i., BASF SE, Ludwigshafen, Germany).
In pot trials in Limburgerhof greenhouses, Bacillus pumilis INR7 was tested in wheat and maize as solo products and in combination with pyraclostrobin to show effects on plant height. The application of the pyraclostrobin was done as seed treatment and the seeds were treated in the BASF Seed Solutions Technology Center (SSTC) Limburgerhof using a batch lab treater. The respective amount of seeds was placed in the bowl of the treater and the slurry was dosed on the spinning disk.
The bacterials were grown in shake flasks and used as fermentation broth with a CFU of at least 1×10^12 per ml. This broth was added as a drench solution directly adjacent to the seeds with 10 ml for each seed kernel which makes 50 ml per pot.
The trial was sown in 8 cm pots and a mix of peat substrate and sand (ratio 1:4) was used as a substrate. […]
For the assessment, the plant height from all plants was measured in cm. […]
The expected relative plant height of active compound combinations were determined using Colby's formula (Colby, S. R. “Calculating synergistic and antagonistic responses of herbicide combinations”, Weeds 15, pp. 20-22, 1967) and compared with the observed efficacies. […]

Pyraclostrobin
Observed efficacy (Sclerotinia sclerotiorum): 16.7% | Observed efficacy (Gaeumannomyces graminis): 5.0% | Observed relative plant height (wheat): 99.4%
